Columns and labels:
[1] = Body weight and food consumption after i.p. administration; type: in vivo, Sprague-Dawley rats; conditions: rats, 5 mg/kg i.p., 18 hours after injection; FIG. 6
From the text: Adult male Sprague-Dawley rats (175-225 g) were used to assess the effect of isoquinoline compounds on food uptake and body weight. Baseline body weight and food consumption measurements were taken for 3 days prior to start of the study (Day 0). On Day −1, the food was taken away from the animals at 5:00 PM. The next morning (Day 0), body weight measurements were taken, and the animals were divided into treatment groups with 6 animals in each group. The treatment groups were saline control, HP 228 positive control and test isoquinoline compounds. Saline was administered i.p. at 1 ml/kg. HP 228 and test isoquinoline compounds were administered i.p. at 5 mg/kg. The injections were initiated at 2:00 PM on Day 0.
Body weight and food consumption measurements were taken at 9 hr (Day 0; 11:00 PM) and at 18 hr (Day 1, 8:00 AM) after injection. At the end of the study, all evaluated parameters (9 and 18 hour body weight and food consumption) were analyzed by standard statistical methods. Significance (P<0.05) was determined by one-way ANOVA, ANOVA for repeated measures, or Student's t-test.
The level of reduction was similar to that seen with HP 228.

[2] = tested on: arachidonic acid induced dermal inflammation; test: Arachidonic acid induced dermal inflammation (ear thickness); type: in vivo, Female BALB/c mice
Protocol: Female BALB/c mice (17-22 g) were used and administered the test isoquinoline compounds or positive control compounds 30 to 60 min prior to topical application of arachidonic acid. Indomethacin and HP 228 were used as positive controls. Compounds were administered orally (p.o.) or intraperitoneally (i.p.). Initial ear thickness (left and right) was measured using spring loaded micro-calipers. Arachidonic acid was applied to mice anesthetized with a cocktail of ketamine/xylazine (7.0 mg/ml and 0.6 mg/ml, respectively) administered i.p. (300 μl/mouse). Utilizing a micro-pipette, 20 μl of arachidonic acid solution (100 mg/ml ethanol or acetone) was applied to the right ear (10 μl to inner and 10 μl to outer surfaces of […] for a total of 2 mg arachidonic acid per right ear), and 20 μl of vehicle (ethanol or acetone) was applied to the left ear. Mice were returned to their cages to recover. Mice were again anesthetized 50 min after arachidonic acid application and their ears measured.
Dermal inflammation was determined by subtracting the difference of the vehicle treated left ear (L60−L0) from the difference of the arachidonic acid treated right ear (R60−R0). Ear thickness measurements were averaged for each group, and the responses in the vehicle treated control group (Cr; saline or PBS) were subtracted from the response noted in the isoquinoline compound treated group (Tr) to give the relative inflammatory response for each treatment group compared to the control group. The percent inhibition is defined by the equation: % inhibition=(Cr−Tr)/(Cr)×100.

Ac-Nle-Gln-His-(D)Phe-Arg-(D)Trp-Gly-NH2 [HP 228, reference compound]
food consumption [1]: reduction
weight gain [1]: reduction
inhibition of arachidonic acid induced dermal inflammation ([2]; 100 μg/mouse administered intraperitoneally, FIG. 4): inhibition of arachidonic acid induced dermal inflammation
inhibition of arachidonic acid induced dermal inflammation ([2]; administered intraperitoneally, TRG 2405-241 300 μg/mouse, HP 228 100 μg/mouse, FIG. 3): inhibition of arachidonic acid induced dermal inflammation
reduction in the level of arachidonic acid-induced dermal inflammation ([2]; intraperitoneally, HP 228 100 μg/mouse, TRG 2409-2 or TRG 2409-14 100 or 300 μg/mouse, FIG. 5): reduction
